Test: xn = mol fraction of the nth substance listed
Details: 101 kPa, Liquid; for speed of sound: Frequency=2 MHz, Linear variable-path acoustic interferometer; for mass density: Vibrating tube method

Nc1ccccc1Cl [2-chlorobenzeneamine] + OCc1ccccc1
Details	mass density, 303.15 K [kg/m3]	mass density, 308.15 K [kg/m3]	mass density, 313.15 K [kg/m3]	mass density, 318.15 K [kg/m3]	mass density, 323.15 K [kg/m3]	speed of sound, 303.15 K [m/s]	speed of sound, 313.15 K [m/s]
x2 = 0.1018	1188.36	1183.05	1178.05	1172.74	1167.93	1470.9	1440.8
x2 = 0.2031	1173.95	1168.26	1162.88	1157.37	1152.55	1474.4	1445.4
x2 = 0.3041	1158.94	1153	1147.35	1141.76	1136.87	1478	1450.2
x2 = 0.4047	1143.31	1137.27	1131.48	1125.89	1121.03	1482.1	1455
x2 = 0.5049	1126.98	1121.04	1115.21	1109.7	1104.91	1486.4	1459.9
x2 = 0.6047	1110.07	1104.31	1098.62	1093.31	1088.6	1490.9	1464.9
x2 = 0.7041	1092.58	1087.09	1081.73	1076.67	1072.12	1495.6	1470.1
x2 = 0.8031	1074.51	1069.49	1064.51	1059.84	1055.47	1500.6	1475.4
x2 = 0.9017	1056	1051.53	1047	1042.77	1038.7	1506	1481

Nc1cccc(Cl)c1 [3-chlorobenzenamine] + OCc1ccccc1
Details	mass density, 303.15 K [kg/m3]	mass density, 308.15 K [kg/m3]	mass density, 313.15 K [kg/m3]	mass density, 318.15 K [kg/m3]	mass density, 323.15 K [kg/m3]	speed of sound, 303.15 K [m/s]	speed of sound, 313.15 K [m/s]
x2 = 0.1021	1189.69	1184.95	1180.24	1175.53	1170.9	1515.4	1484.3
x2 = 0.2037	1173.42	1168.65	1163.79	1159.09	1154.36	1514.9	1484.6
x2 = 0.3048	1156.94	1152.15	1147.27	1142.57	1137.82	1514.5	1484.9
x2 = 0.4055	1140.31	1135.57	1130.63	1125.95	1121.26	1514.1	1485.2
x2 = 0.5057	1123.48	1118.82	1113.94	1109.34	1104.71	1513.7	1485.5
x2 = 0.6054	1106.48	1101.95	1097.12	1092.63	1088.14	1513.3	1485.8
x2 = 0.7048	1089.33	1084.96	1080.3	1075.88	1071.54	1512.9	1486.1
x2 = 0.8036	1072.05	1067.86	1063.4	1059.13	1054.96	1512.6	1486.4
x2 = 0.902	1054.66	1050.79	1046.44	1042.37	1038.37	1512.3	1486.7

CN(C)c1ccccc1 [N,N-dimethylaniline] + OCc1ccccc1
Details	mass density, 303.15 K [kg/m3]	mass density, 308.15 K [kg/m3]	mass density, 313.15 K [kg/m3]	mass density, 318.15 K [kg/m3]	mass density, 323.15 K [kg/m3]	speed of sound, 303.15 K [m/s]	speed of sound, 313.15 K [m/s]
x2 = 0.12	957.18	952.61	948.78	944.35	940.48	1475.2	1438
x2 = 0.2348	966.14	961.64	957.75	953.35	949.47	1480.2	1443.8
x2 = 0.3447	974.99	970.58	966.64	962.3	958.43	1484.8	1449.3
x2 = 0.4501	983.81	979.48	975.5	971.22	967.35	1489.2	1454.8
x2 = 0.5511	992.59	988.35	984.36	980.15	976.28	1493.5	1460.3
x2 = 0.6481	1001.4	997.24	993.26	989.1	985.25	1497.6	1465.7
x2 = 0.7412	1010.24	1006.19	1002.16	998.09	994.24	1501.5	1471.1
x2 = 0.8308	1019.15	1015.2	1011.16	1007.16	1003.34	1505.1	1476.4
x2 = 0.917	1028.12	1024.28	1020.19	1016.31	1012.49	1508.5	1481.7

CNc1ccccc1 [N-methylaniline] + OCc1ccccc1
Details	mass density, 303.15 K [kg/m3]	mass density, 308.15 K [kg/m3]	mass density, 313.15 K [kg/m3]	mass density, 318.15 K [kg/m3]	mass density, 323.15 K [kg/m3]	speed of sound, 303.15 K [m/s]	speed of sound, 313.15 K [m/s]
x2 = 0.1044	987.67	980.39	976.87	971.88	967.24	1545	1507.9
x2 = 0.2078	993.53	986.48	982.82	977.93	973.34	1540.9	1505.2
x2 = 0.3102	999.29	992.49	988.73	983.96	979.41	1537.1	1502.6
x2 = 0.4116	1004.92	998.45	994.6	989.97	985.5	1533.3	1500.1
x2 = 0.512	1010.45	1004.34	1000.43	995.91	991.54	1529.6	1497.7
x2 = 0.6115	1015.9	1010.22	1006.25	1001.87	997.59	1526.1	1495.3
x2 = 0.71	1021.26	1016.06	1012.02	1007.8	1003.64	1522.5	1493
x2 = 0.8076	1026.57	1021.85	1017.82	1013.73	1009.68	1518.8	1490.8
x2 = 0.9042	1031.88	1027.64	1023.58	1019.63	1015.72	1515.3	1488.7
